Experimental data published in patent publication US9777123B2, “Sulfated beta-O4 low molecular weight lignins” (VIRGINIA COMMONWEALTH UNIVERSITY, priority 2013, dated 2017).

Target: T1, SbO4L-thrombin complex (Homo sapiens, UniProt P00734)
T1 construct: purchased Haematologic Technologies, Sigma-Aldrich or Elastin Products Company (not assigned per protease)
Experiment: Protamine-mediated reversal of SbO4L inhibition of thrombin
Type: biochemical
Procedure: FIG. 8. Protamine-mediated reversal of SbO4L inhibition of thrombin. Recovery of thrombin activity at varying levels of protamine following 50% inhibition by SbO4L was measured through the Spectrozyme TH hydrolysis assay at pH 7.4. Solid line represents non-linear fit of the data by a logistic function similar to equation 1 to obtain the RC50, the concentration of protamine necessary to recover 50% thrombin activity.
A major advantage of heparin therapy is its amenability to protamine-based reversal. It is also one of the reasons why fondaparinux continues to suffer because its iatrogenic bleeding is difficult to reverse rapidly. To test whether SbO4L inhibition of thrombin can be reversed, we studied the recovery of thrombin activity following successive introduction of protamine. […] The protamine-mediated recovery profile essentially mirrors the SbO4L-induced inhibition profile. More importantly, the level of recovery is quantitative at high enough protamine concentrations. Further, the recovery was instantaneous as no extended incubation was necessary to observe reversal. The concentration of protamine necessary to recover 50% thrombin activity, i.e., RC50, could be calculated using an equation similar to the logistic equation 1 used for inhibition studies and found to be ˜0.1 μg/ml, […] for SbO4L inhibition of thrombin.

RC50 relative to IC50 (fold higher): 5 fold
RC50, concentration of protamine necessary to recover 50% thrombin activity (after 50% inhibition by SbO4L, pH 7.4, 37° C.): ~0.1 µg/mL
thrombin activity restored (chromogenic test systems): 100%
effect of protamine alone on thrombin activity (controls without SbO4L): did not affect the activity of thrombin
Substance: protamine
